Data published in patent publication US11939307B2, “Phenylmethyl-piperazine derivatives and antiviral uses thereof” (INSTITUTE OF MEDICINAL BIOTECHNOLOGY, CHINESE ACADEMY OF …, priority 2019, dated 2024).

Tested on: HCV
Test: Assay of anti-HCV activity in HCV-infected Huh7.5 cells (intracellular HCV RNA by one-step quantitative RT-PCR)
Assay type: cell-based
Settings: Hepatitis C virus; compound at 1 μM; Huh7.5 cells infected with HCV; 96 hrs; intracellular HCV RNA vs viral control; read-out: inhibitory activities (inhibitory levels of the compounds against HCV replication)
Experimental: 100 μL Huh7.5 cells were seeded at a density of 1×10^5/mL in a 96-well cell culture plate and incubated in an incubator at 37° C., 5% CO2 and saturated humidity for 6 hrs. Then, while infecting Huh7.5 cells with viral solution containing HCV virus particles, the compounds of the present invention (including all specific compounds listed herein) were added at a concentration of 1 μM, respectively. After continuing incubation for 96 hrs, the total intracellular RNA was extracted separately, and the content of intracellular HCV RNA was measured by one-step quantitative RT-PCR, compared with the RNA level of the viral control, and the inhibition rate of the compounds against HCV was calculated.

| Compound | inhibition at 1 µM [%] |
| --- | --- |
| CCN1CCCC1CN(C)c1ccc(C(F)(F)F)c(CN2CCN(c3ccc(Cl)cc3)CC2)c1 (stereo not drawn) [Compound 25, 3-((4-(4-chlorophenyl)piperazin-1-yl)methyl)-N-((1-ethylpyrrolidin-2-yl)methyl)-N-methyl-4-(trifluoromethyl)aniline] | > 75 |
| CN(C)CCN(C)c1ccc(C(F)(F)F)c(CN2CCN(c3ccc(Br)c(Cl)c3)CC2)c1 [Compound 26, N^1-(3-((4-(4-bromo-3-chlorophenyl)piperazin-1-yl)methyl)-4-(trifluoromethyl)phenyl)-N^1,N^2,N^2-trimethylethan-1,2-diamine] | > 75 |
| CN(C)C1CCN(c2ccc(C(F)(F)F)c(CN3CCN(c4ccc(Cl)cc4)CC3)c2)CC1 [Compound 27, 1-(3-((4-(4-chlorophenyl)piperazin-1-yl)methyl)-4-(trifluoromethyl)phenyl)-N,N-dimethylpiperidin-4-amine] | > 75 |
| FC(F)(F)c1ccc(N2CCC(N3CCCC3)CC2)cc1CN1CCN(c2ccc(Cl)cc2)CC1 [Compound 28, 1-(4-chlorophenyl)-4-(5-(4-(pyrrolidin-1-yl)piperidin-1-yl)-2-(trifluoromethyl)benzyl)piperazine] | > 75 |
| CN(C)C1CCN(c2ccc(C(F)(F)F)c(CN3CCN(c4ccc(Cl)cc4)CC3)c2)C1 (stereo not drawn) [Compound 29, 1-(3-((4-(4-chlorophenyl)piperazin-1-yl)methyl)-4-(trifluoromethyl)phenyl)-N,N-dimethylpyrrolidin-3-amine] | > 75 |
| CN1CCN(c2ccc(C(F)(F)F)c(CN3CCN(c4ccc(Cl)cc4)CC3)c2)CC1 [Compound 30, 1-(4-chlorophenyl)-4-(5-(4-methylpiperazin-1-yl)-2-(trifluoromethyl)benzyl)piperazine] | > 75 |
| CC1CN(c2ccc(Cl)cc2)CCN1Cc1cc(N(C)CN2CCCCC2)ccc1C(F)(F)F (stereo not drawn) [Compound 31, 3-((4-(4-chlorophenyl)-2-methylpiperazin-1-yl)methyl)-N-methyl-N-(piperidin-1-ylmethyl)-4-(trifluoromethyl)aniline] | > 75 |
| CC1CN(c2ccc(Cl)c(C(F)(F)F)c2)CCN1Cc1cc(N2CCCN(C)CC2)ccc1C(F)(F)F (stereo not drawn) [Compound 32, 1-(3-((4-(4-chloro-3-(trifluoromethyl)phenyl)-2-methylpiperazin-1-yl)methyl)-4-(trifluoromethyl)phenyl)-4-methyl-1,4-diazepane] | > 75 |
| CC1CN(c2ccc(Br)c(C(F)(F)F)c2)CCN1Cc1cc(N(C)CCN(C)C)ccc1C(F)(F)F (stereo not drawn) [Compound 33, N^1-(3-((4-(4-bromo-3-(trifluoromethyl)phenyl)-2-methylpiperazin-1-yl)methyl)-4-(trifluoromethyl)phenyl)-N^1,N^2,N^2-trimethylethan-1,2-diamine] | > 75 |
| CCCC1CN(c2ccc(C(F)(F)F)cc2)CCN1Cc1cc(N2CCCN(C)CC2)ccc1C(F)(F)F (stereo not drawn) [Compound 34, 1-methyl-4-(3-((2-propyl-4-(4-(trifluoromethyl)phenyl)piperazin-1-yl)methyl)-4-(trifluoromethyl)phenyl)-1,4-diazepane] | > 75 |
| CCN1CCCN(c2ccc(C(F)(F)F)c(CN3CCN(c4ccc(C)c(Cl)c4)CC3)c2)CC1 [Compound 35, 1-(3-((4-(3-chloro-4-methylphenyl)piperazin-1-yl)methyl)-4-(trifluoromethyl)phenyl)-4-ethyl-1,4-diazepane] | > 75 |
| CN1CCCN(c2ccc(C(F)(F)F)c(CN3CCN(c4ccc(F)cc4)CC3)c2)CC1 [Compound 36, 1-(3-((4-(4-fluorophenyl)piperazin-1-yl)methyl)-4-(trifluoromethyl)phenyl)-4-methyl-1,4-diazepane] | > 75 |
| CN1CCCN(c2ccc(C(F)(F)F)c(CN3CCN(c4ccc(F)c(Cl)c4)CC3)c2)CC1 [Compound 37, 1-(3-((4-(3-chloro-4-fluorophenyl)piperazin-1-yl)methyl)-4-(trifluoromethyl)phenyl)-4-methyl-1,4-diazepane] | > 75 |
| CN(CCN1CCCC1)c1ccc(C(F)(F)F)c(CN2CCC(c3ccc(Cl)cc3)CC2)c1 [Compound 39, 3-((4-(4-chlorophenyl)piperidin-1-yl)methyl)-N-methyl-N-(2-(pyrrolidin-1)ethyl)-4-(trifluoromethyl)aniline] | > 75 |
| Cc1cc(N2CCN(Cc3cc(N4CCCN(C)CC4)ccc3C(F)(F)F)CC2)ccc1Cl [Compound 40, 1-(3-((4-(4-chloro-3-methylphenyl)piperazin-1-yl)methyl)-4-(trifluoromethyl)phenyl)-4-methyl-1,4-diazepane] | > 75 |
| CN(C)CCN(C)c1ccc(C(F)(F)F)c(CN2CCN(c3ccc(Cl)c(F)c3)CC2)c1 [Compound 41, N^1-(3-((4-(4-chloro-3-fluorophenyl)piperazin-1-yl)methyl)-4-(trifluoromethyl)phenyl)-N^1,N^2,N^2-trimethylethan-1,2-diamine] | > 75 |
| CN(C)CCN(C)c1ccc(C(F)(F)F)c(CN2CCC(c3ccc(Cl)c(Cl)c3)CC2)c1 [Compound 42, N^1-(3-((4-(3,4-dichlorophenyl)piperidin-1-yl)methyl)-4-(trifluoromethyl)phenyl)-N^1,N^2,N^2-trimethylethan-1,2-diamine] | > 75 |
| Cc1cc(C2CCN(Cc3cc(N4CCCN(C)CC4)ccc3C(F)(F)F)CC2)ccc1Cl [Compound 43, 1-(3-((4-(4-chloro-3-methylphenyl)piperidin-1-yl)methyl)-4-(trifluoromethyl)phenyl)-4-methyl-1,4-diazepane] | > 75 |
| CN1CCCN(c2ccc(C(F)(F)F)c(CN3CCN(C(c4ccc(F)cc4)c4ccc(F)cc4)CC3)c2)CC1 [Compound 44, 1-(3-((4-(bis(4-fluorophenyl)methyl)piperazin-1-yl)methyl)-4-(trifluoromethyl)phenyl)-4-methyl-1,4-diazepane] | > 75 |
| Cc1ccc(C(c2ccc(C)cc2)N2CCN(Cc3cc(N4CCCN(C)CC4)ccc3C(F)(F)F)CC2)cc1 [Compound 45, 1-(3-((4-(bis(4-methylphenyl)methyl)piperazin-1-yl)methyl)-4-(trifluoromethyl)phenyl)-4-methyl-1,4-diazepane] | > 75 |
| CN1CCCN(c2ccc(C(F)(F)F)c(CN3CCN(C(c4ccc(Cl)cc4)c4ccc(Cl)cc4)CC3)c2)CC1 [Compound 46, 1-(3-((4-(bis(4-chlorophenyl)methyl)piperazin-1-yl)methyl)-4-(trifluoromethyl)phenyl)-4-methyl-1,4-diazepane] | > 75 |
| CN1CCCN(c2ccc(C(F)(F)F)c(CN3CCN(C(c4ccc(Br)cc4)c4ccc(Br)cc4)CC3)c2)CC1 [Compound 47, 1-(3-((4-(bis(4-bromophenyl)methyl)piperazin-1-yl)methyl)-4-(trifluoromethyl)phenyl)-4-methyl-1,4-diazepane] | > 75 |
| CC(C)c1ccc(C(c2ccc(C(C)C)cc2)N2CCN(Cc3cc(N4CCCN(C)CC4)ccc3C(F)(F)F)CC2)cc1 [Compound 48, 1-(3-((4-(bis(4-isopropylphenyl)methyl)piperazin-1-yl)methyl)-4-(trifluoromethyl)phenyl)-4-methyl-1,4-diazepane] | > 75 |
| CN(C)CCN(C)c1ccc(C(F)(F)F)c(CN2CCN(C(c3ccc(C4CC4)cc3)c3ccc(C4CC4)cc3)CC2)c1 [Compound 49, N^1-(3-((4-(bis(4-cyclopropylphenyl)methyl)piperazin-1-yl)methyl)-4-(trifluoromethyl)phenyl)-N^1,N^2,N^2-trimethylethan-1,2-diamine] | > 75 |
| CN(CCN1CCC1)c1ccc(C(F)(F)F)c(CN2CCN(C(c3ccc(Cl)cc3)c3ccc(Cl)cc3)CC2)c1 [Compound 50, N-(2-(azetidin-1-yl)ethyl)-3-((4-(bis(4-chlorophenyl)methyl)piperazin-1-yl)methyl)-N-methyl-4-(trifluoromethyl)aniline] | 50 to 75 |
| CN1CCCN(c2ccc(C(F)(F)F)c(CN3CCN(C(c4ccccc4)c4ccc(F)cc4)CC3)c2)CC1 (stereo not drawn) [Compound 51, 1-(3-((4-((4-fluorophenyl)(phenyl)methyl)piperazin-1-yl)methyl)-4-(trifluoromethyl)phenyl)-4-methyl-1,4-diazepane] | > 75 |
| CN(C)CCN(C)c1ccc(C(F)(F)F)c(CN2CCN(C(c3ccc(Cl)cc3)c3ccc(Cl)cc3)CC2)c1 [Compound 52, N^1-(3-((4-(bis(4-chlorophenyl)methyl)piperazin-1-yl)methyl)-4-(trifluoromethyl)phenyl)-N^1,N^2,N^2-trimethylethan-1,2-diamine] | > 75 |
| CN(C)CCN(C)c1ccc(C(F)(F)F)c(CN2CCN(C(c3ccc(C(F)(F)F)cc3)c3ccc(C(F)(F)F)cc3)CC2)c1 [Compound 53, N^1-(3-((4-(bis(4-(trifluoromethyl)phenyl)methyl)piperazin-1-yl)methyl)-4-(trifluoromethyl)phenyl)-N^1,N^2,N^2-trimethylethan-1,2-diamine] | > 75 |
| CN(C)CCN(C)c1ccc(C(F)(F)F)c(CN2CCN(C(c3ccccc3)c3ccc(Cl)cc3)CC2)c1 (stereo not drawn) [Compound 54, N^1-(3-((4-((4-chlorophenyl)(phenyl)methyl)piperazin-1-yl)methyl)-4-(trifluoromethyl)phenyl)-N^1,N^2,N^2-trimethylethan-1,2-diamine] | > 75 |
| CN1CCN(c2ccc(C(F)(F)F)c(CN3CCN(C(c4ccc(Cl)cc4)c4ccc(Cl)cc4)CC3)c2)CC1 [Compound 55, 1-(bis(4-chlorophenyl)methyl)-4-(5-(4-methylpiperazin-1-yl)-2-(trifluoromethyl)benzyl)piperazine] | > 75 |
